Patent publication EP1756125B1, “1,1,3,3,3-[…]-1-OXO/THIO-1LAMBDA5,3LAMBDA5-DIPHOSPHAZ-2-ENES, METHOD FOR PRODUCING THEM AND THEIR USE AS AGENTS FOR […] […] […] UREA” (SKW STICK[…] GmbH, priority 2004, dated 2005)

Test system: Urease
Assay: Test for urease-inhibiting effect in soil (NH3-N release from urea, closed vessel with ammonia trap)
Type: biochemical
Settings: soil at 40 % of maximum water capacity, 50 mg urea, t50 = day after start at which inhibition of urea hydrolysis is still 50 %
Experimental: 30 g auf 40 % der maximalen Wasserkapazität eingestellter Boden werden mit 1 ml Harnstofflösung entsprechend 50 mg Harnstoff versetzt. Gleichzeitig erfolgt die Applikation des Wirkstoffes, vorzugsweise in der Harnstofflösung gelöst. Die Konzentrationsangaben für die einzelnen geprüften Wirkstoffe in der nachfolgenden Tabelle beziehen sich auf die im Test verwendete Menge an Carbamidstickstoff. Der Boden, auf dessen Oberfläche die Harnstofflösung (mit und ohne Wirkstoff) aufgebracht wird, befindet sich in einem luftdicht verschlossenen Gefäß, in das gleichzeitig eine Vorlage eingebracht wird, die den aus dem Harnstoff freigesetzten Ammoniak als Ammonium auffängt. Durch tägliches Überspülen der Vorlage und Analyse der enthaltenen NH4-N-Mengen wird die NH3-N-Freisetzung aus dem Harnstoff bestimmt.
Aus der Summation der Ammonium-Mengen in der Vorlage wird die prozentuale Hemmung der Harnstoff-Hydrolyse in Abhängigkeit von der Zeit berechnet bzw. aus diesen Werten der t50-Wert rechnerisch ermittelt.
Als t50-Wert wird der Zeitpunkt in Tagen nach Versuchsbeginn verstanden, zu dem die Hemmung der Harnstoff-Hydrolyse noch 50 % beträgt.

| SMILES | t50-Wert (Konz. 0,1 % HS-N-bez.) | t50-Wert (Konz. 0,5 % HS-N-bez.) |
| --- | --- | --- |
| CCCCNP(N)(=NP(N)(N)=S)NCCCC [Verbindung 1, 3,3-Bis(butylamino)-1,1,3,-triamino-1-thio-1λ^5,3λ^5-diphosphaz-2-en] | 9,4 d | – |
| CCCNP(N)(=NP(N)(N)=O)NCCC [Verbindung 4, 3,3-Bis(propylamino)-1,1,3,-triamino-1-oxo-1λ^5,3λ^5-diphosphaz-2-en] | 9,6 d | – |
| CCCCNP(N)(=NP(N)(N)=O)NCCCC [Verbindung 2, 3,3-Bis(butylamino)-1,1,3,-triamino-1-oxo-1λ^5,3λ^5-diphosphaz-2-en] | 8,8 d | – |
| CCCCNP(N)(N)=NP(N)(N)=S [Verbindung 5, 3-Butylamino-1,1,3,3-tetraamino-1-thio-1λ^5,3λ^5-diphosphaz-2-en] | 14,5 d | – |
| CCCNP(N)(=NP(N)(N)=S)NCCC [Verbindung 3, 3,3-Bis(propylamino)-1,1,3,-triamino-1-thio-1λ^5,3λ^5-diphosphaz-2-en] | 10,4 d | – |
| CCCNP(N)(N)=NP(N)(N)=S [Verbindung 6, 3-Propylamino-1,1,3,3-tetraamino-1-thio-1λ^5,3λ^5-diphosphaz-2-en] | 14,2 d | – |
| CCN(CC)P(N)(N)=NP(N)(N)=S [Verbindung 7, 3-Diethylamino-1,1,3,3-tetraamino-1-thio-1λ^5,3λ^5-diphosphaz-2-en] | – | 7,9 d |
